Here are results for seven compounds from PubChem BioAssay (NCI).

“And” between values parts separate entries of the source, which are not always exact repeats. Equal entries are not always repeated.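 Tested at 5 concentrations; 48 h exposure; 96-well plates; endpoints linearly interpolated, else capped at highest concentration. GI50 marks 50% less growth. TGI: concentration producing complete growth inhibition.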

Holding throughout (assay): inhibition of tumour cell growth, NCI panel, 48 h
The subject of assay [1] is KM12 colon.
For assay [2], the system named is A549 NSCLC.
The test system of assay [3] is A498 renal.
Assay [4] relates to MOLT-4 leukemia.
Assay [5] relates to SW-620 colon.
The test system of assay [6] is M14 melanoma.
For assay [7], the system named is SF-295 CNS.
Assay [8] deals with MALME-3M melanoma.
The test system of assay [9] is PC-3 prostate.
Assay [10] deals with T-47D breast.

On to `C=CC(=O)N1CCC[C@@H](n2nc(-c3ccc(Oc4ccccc4)cc3)c3c(N)ncnc32)C1`, for which the GI50 in assay [1] is greater than 8.92 µM; in assay [2] it was greater than 10 µM; in assay [3], 0.46 µM; in assay [4], greater than 5.29 µM; in assay [5], greater than 10 µM; in assay [6] it was greater than 7.36 µM. For the same compound, the GI50 is greater than 9.42 µM in [7], greater than 10 µM in assay [8], greater than 10 µM in [9] and 0.0945 µM in [10]. In addition, the TGI in assay [1] was greater than 10 µM; in assay [2] it was greater than 10 µM; in assay [3] it was greater than 5.51 µM; in [4], greater than 10 µM; in [5] it was greater than 10 µM; in [6], greater than 10 µM. The TGI in assay [7], in [8], in assay [9] and in assay [10] was greater than 10 µM each time.
On to `CC(=O)N[C@@H](Cc1ccc(OP(=O)(O)O)cc1)C(=O)N[C@H]1CCC(=O)N2CCC[C@@H](C(=O)NC3CCc4ccccc43)N2C1=O` (some centres undefined), for which the GI50 in assay [1], in assay [2], in assay [3], in assay [4], in assay [5] and in assay [6] was greater than 25 µM throughout. Further, the GI50 in assay [7], in [8], in assay [9] and in [10] was greater than 25 µM each time. Also, the TGI in assay [1], in assay [2], in [3], in assay [4], in [5] and in assay [6] was greater than 25 µM in each case. Further, the TGI in [7], in [8], in [9] and in assay [10] was greater than 25 µM each time.
As for `CCOc1ccc2c(c1)C(=O)c1c-2n(CCCN=[N+]=[N-])c(=O)c2cc([N+](=O)[O-])ccc12`, the GI50 in assay [1] is 23.9 µM; in assay [2], 10.2 µM; in [3], 18.5 µM; in assay [4] it was 1.96 µM; in [5] it was 3.42 µM; in [6] it was 3.63 µM. Further, the GI50 in assay [7] is 4.16 µM; in assay [8] it was 15.4 µM; in [9], 15.1 µM; in assay [10], 0.102 µM. Besides, the TGI was greater than 100 µM in assay [1]; greater than 100 µM in assay [2]; 58.7 µM in [3]; 20.8 µM in assay [4]; greater than 100 µM in [5]; greater than 100 µM in assay [6]. For the same compound, the TGI in [7] was 74.4 µM; in [8], 61.5 µM; in [9], greater than 100 µM; in [10], 1.24 µM.
Turning to `CC[C@@H](C)/C=C(C)/C=C/C(=O)c1c(O)c(-c2ccc(O)cc2)cn(OC2CC(=O)CCC(C)OC(=O)CC2O)c1=O` (some centres undefined), the GI50 was 1.56 µM in assay [1]; 1.74 µM in assay [2]; 1.98 µM in assay [3]; 0.225 µM in assay [4]; 0.562 µM in [5]; 0.258 µM in [6]. Further, the GI50 in [7] was 0.331 µM; in [8] it was 0.305 µM; in [9], 5.62 µM; in [10] it was 0.383 µM. In addition, the TGI in [1] came out at 14.7 µM; in [2] it was 15.6 µM; in [3], 24 µM; in [4], 12.1 µM; in assay [5], 16.4 µM; in assay [6] it was 2.38 µM. Moreover, the TGI in [7] is 4.89 µM; in assay [8] it was 6.8 µM; in assay [9], greater than 91.5 µM; in assay [10] it was 15.3 µM.
As to `NC1(C(=O)N[C@@H](CCO)c2ccc(Cl)cc2)CCN(c2ncnc3[nH]ccc23)CC1`, the GI50 is 0.927 µM and 2.78 µM in assay [1]; > 3.15 µM and 12 µM in assay [2]; 0.0709 µM and 0.135 µM in assay [3]; 0.505 µM and 0.644 µM in assay [4]; > 3.5 µM and 24.8 µM in [5]; > 2.68 µM and 9.15 µM in assay [6]. In addition, the GI50 in [7] is 0.455 µM and 0.482 µM; in [8], 0.977 µM and 2.38 µM; in [9], 0.86 µM and 0.841 µM; in assay [10], 0.167 µM and 0.439 µM. The TGI in assay [1] is greater than 77.2 µM; in assay [2], greater than 92.1 µM; in assay [3] it was 0.522 µM and 0.939 µM; in assay [4], > 10 µM and 21.5 µM; in assay [5], greater than 100 µM; in [6], greater than 81.4 µM. Further, the TGI in [7] was > 5.03 µM and 12.9 µM; in assay [8], > 3.54 µM and 18.7 µM; in assay [9], greater than 100 µM; in assay [10], greater than 76.8 µM.
On to `CCCCOC(=O)c1c(C)[nH]c(/C=C2\N=C(c3ccc[nH]3)C=C2OC)c1C`, for which the GI50 in assay [1] was 0.11 µM; in assay [2], 0.205 µM; in assay [3], 0.342 µM; in assay [4] it was 0.138 µM; in assay [5], 0.0569 µM; in [6], 0.171 µM. The GI50 in [7] is 0.253 µM; in assay [8], 1.16 µM; in assay [9], 0.136 µM; in assay [10] it was 0.347 µM. Also, the TGI was 1.86 µM in [1]; 15.2 µM in assay [2]; 2.16 µM in assay [3]; 9.85 µM in assay [4]; 1.44 µM in assay [5]; 2.01 µM in [6]. Moreover, the TGI in assay [7] is 1.32 µM; in [8], 2.82 µM; in assay [9], greater than 24.9 µM; in [10] it was 1.9 µM.
In the case of `Cc1cc(-c2cc(OC(=O)c3ccccc3)ccc2Cl)cc2nnc(Nc3ccc(OCCN4CCCC4)cc3)nc12`, the GI50 is 1.84 µM in [1]; 1.72 µM in [2]; 9.84 µM in [3]; 2.01 µM in assay [4]; 0.265 µM in assay [5]; 1.64 µM in assay [6]. Moreover, the GI50 was 1.45 µM in assay [7], 1.45 µM in assay [8], 1.16 µM in assay [9] and 1.57 µM in [10]. Besides, the TGI in assay [1] stood at 3.42 µM; in [2], 3.29 µM; in assay [4] it was 4.74 µM; in assay [5], 0.571 µM; in assay [6], 3.24 µM; in [7], 2.79 µM. Moreover, the TGI came out at 2.93 µM in assay [8], 2.47 µM in [9] and 3.55 µM in assay [10].
